Results on five molecules are retold here after patent US12398375B2, “Methods for improved poxvirus yields” (priority 2018, dated 2025).

The subject of test [1] is MYXV expressing a GFP reporter gene (vMyx-GFP) in human A549 cells. As to the kind of experiment: MYXV reporter gene (GFP) expression in human A549 cells, fluorescence microscopy. The test is classed as cell-based, Myxoma virus. The following applies: human A549 cells pre-treated 1 h with different concentrations; vMyx-GFP MOI 1.0, 0.1 or 0.01; images at 48 h and 72 h post infection.

The subject of test [2] is vMyx-GFP in human A549 cells. As to the kind of experiment: MYXV progeny virus titration assay (A549 infection, titrated on RK13 cells). The following applies: for levels of progeny virus (MYXV titers): A549 cells. The test is classed as cell-based, Myxoma virus.
The subject of test [3] is VACV expressing GFP (VACV-GFP) in human A549 cells. The test is classed as cell-based, vaccinia virus.
The test system of test [4] is VACV-GFP in human A549 cells. The test is classed as cell-based, vaccinia virus.
Another test has as its system HeLa cells. The note with it: cited from earlier work.
The next test concerns the target CRM1 (Homo sapiens, UniProt O14980). The following applies: reported (Dickmanns et al. 2015); cited from earlier work.
Where [5] appears, read: vMyx-GFP MOI 0.1 or 0.01, harvested after 48 h or 72 h, FIGS. 6A-6B.
The mark [6] stands for this setting: vMyx-GFP MOI 1.0, 0.1 or 0.01, inhibitor 0.001, 0.01 or 0.1 μM, harvested after 48 h, FIGS. 5A-5D.

Chain of CRM1 (O14980 whole entry): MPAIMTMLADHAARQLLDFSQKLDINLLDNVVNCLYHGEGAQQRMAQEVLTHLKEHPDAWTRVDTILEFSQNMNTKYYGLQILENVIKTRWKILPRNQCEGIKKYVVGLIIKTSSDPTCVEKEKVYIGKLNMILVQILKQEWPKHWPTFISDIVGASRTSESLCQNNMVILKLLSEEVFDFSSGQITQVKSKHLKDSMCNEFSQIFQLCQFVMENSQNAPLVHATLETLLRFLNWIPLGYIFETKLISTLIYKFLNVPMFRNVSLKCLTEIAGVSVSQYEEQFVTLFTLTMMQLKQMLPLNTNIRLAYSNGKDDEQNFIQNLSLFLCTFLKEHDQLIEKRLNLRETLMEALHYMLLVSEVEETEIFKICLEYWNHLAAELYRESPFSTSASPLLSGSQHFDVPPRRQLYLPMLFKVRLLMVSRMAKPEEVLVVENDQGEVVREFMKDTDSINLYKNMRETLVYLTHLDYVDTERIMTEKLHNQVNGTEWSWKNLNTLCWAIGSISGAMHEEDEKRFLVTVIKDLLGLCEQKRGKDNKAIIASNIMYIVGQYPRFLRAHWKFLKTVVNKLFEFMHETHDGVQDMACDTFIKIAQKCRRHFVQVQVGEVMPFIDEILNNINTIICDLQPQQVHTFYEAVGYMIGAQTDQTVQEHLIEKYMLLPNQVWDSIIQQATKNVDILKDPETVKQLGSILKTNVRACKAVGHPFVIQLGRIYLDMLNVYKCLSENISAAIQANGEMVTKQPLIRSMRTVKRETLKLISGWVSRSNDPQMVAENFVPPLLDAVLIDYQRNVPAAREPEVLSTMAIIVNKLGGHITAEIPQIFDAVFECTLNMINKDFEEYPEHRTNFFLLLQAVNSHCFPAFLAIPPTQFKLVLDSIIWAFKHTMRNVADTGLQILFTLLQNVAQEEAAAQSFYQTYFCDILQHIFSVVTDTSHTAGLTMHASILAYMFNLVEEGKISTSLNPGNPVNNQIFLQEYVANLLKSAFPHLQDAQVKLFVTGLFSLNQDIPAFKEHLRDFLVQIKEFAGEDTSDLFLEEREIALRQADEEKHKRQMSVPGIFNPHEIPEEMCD

As for Ratjadone A, the “MYXV replication, as indicated by reporter gene expression (GFP fluorescence)” value (from here on “MYXV replication, as indicated”) in test [1] was “enhanced MYXV replication”. For the same molecule, the “levels of progeny virus (MYXV titers)” value in test [2] (setting [5]) and in test [2] (setting [6]) was “higher levels of progeny virus” in each case.

As for `CCC(=C/[C@H](C)C/C=C/C(C)=C/[C@@H](C)C(=O)[C@@H](C)[C@H](O)[C@@H](C)C/C(C)=C/C(=O)O)/C=C/[C@@H]1OC(=O)C=C[C@@H]1C` [Leptomycin B], the “MYXV replication, as indicated” value in test [1] is listed as “enhanced MYXV replication”. The “levels of progeny virus (MYXV titers)” value in test [2] (setting [5]) and in test [2] (setting [6]) was “higher levels of progeny virus” in each case. Besides, the “progeny virus production enhancement compared to the other tested drugs” value in test [2] (FIGS. 6A and 6B, MOI 0.1 or 0.01, 48 h or 72 h) is “highest progeny virus production enhancement”. Also, the “VACV replication, as indicated by reporter gene expression (GFP fluorescence)” value in test [3] is “enhanced VACV replication”. For the same molecule, in test [4], the “levels of progeny virus (VACV titers)” value was “higher levels of progeny virus”. In addition, in the test with HeLa cells, the “concentration that arrests cells at the G1 phase” value is 50 pg/mL.

For `CC(/C=C/C1CC=CC(=O)O1)=C\C(C)C/C=C/C(C)=C/C(C)C(=O)C(C)C(O)C(C)C/C(C)=C/C(=O)O` (stereo not shown) [Anguinomycin A], the “MYXV replication, as indicated” value in test [1] is “enhanced MYXV replication”. Further, the “levels of progeny virus (MYXV titers)” value in test [2] (setting [5]) and in test [2] (setting [6]) was “higher levels of progeny virus” in each case.

In the case of `CC(/C=C/C[C@@H](C)/C=C(C)/C=C/[C@@H]1OC(=O)C=C[C@@H]1C)=C\[C@@H](C)C(=O)[C@@H](C)[C@H](O)[C@@H](C)C/C(C)=C/C(=O)O` [Leptomycin A], the “MYXV replication, as indicated” value in test [1] is on record as “enhanced myxoma virus (MYXV) replication”. Also, the “levels of progeny virus (MYXV titers)” value in test [2] (setting [5]) and in test [2] (setting [6]) was “higher levels of progeny virus” each time. The “VACV replication, as indicated by reporter gene expression (GFP fluorescence)” value in test [3] is “enhanced VACV replication”. In addition, the “levels of progeny virus (VACV titers)” value in test [4] is “higher levels of progeny virus”.

Consider Anguinomycin, for which, at CRM1, the “concentration that shuts down CRM1-mediated nuclear protein export” value is given as “above 10 nM”.
